# “And” between values parts separate entries of the source, which are not always exact repeats. Identical values can stand only once.
# System: BDF1 mice, Adenocarcinoma 755 s.c., tumor weight T/C
# Test: NCI In Vivo Anticancer Drug Screen. Data for tumor model Adenocarcinoma 755 (subcutaneous) in B6D2F1 (BDF1) mice
# Details: endpoint: mean tumor weight, higher = larger tumour
# How it was run: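 Compound activity was tested in mice carrying transplanted tumors. Survival or tumor size was measured, and each value is the treated-group measurement divided by that of the vehicle-treated control group (T/C).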
# [1] = dose: 12.5 mg/kg/injection, schedule: Q01DX011 (ip), vehicle: methylcellulose (MC)
# [2] = dose: 15.0 mg/kg/injection, schedule: Q01DX011 (ip), vehicle: methylcellulose (MC)
# [3] = dose: 31.0 mg/kg/injection, schedule: Q01DX011 (ip), vehicle: methylcellulose (MC)
# [4] = dose: 62.0 mg/kg/injection, schedule: Q01DX011 (ip), vehicle: methylcellulose (MC)
# [5] = dose: 250.0 mg/kg/injection, schedule: Q01DX011 (ip), vehicle: methylcellulose (MC)
# [6] = dose: 125.0 mg/kg/injection, schedule: Q01DX011 (ip), vehicle: carboxymethylcellulose (CMC)
# [7] = dose: 5.0 mg/kg/injection, schedule: Q01DX011 (ip), vehicle: carboxymethylcellulose (CMC)
# [8] = dose: 125.0 mg/kg/injection, schedule: Q01DX011 (ip), vehicle: methylcellulose (MC)
# [9] = dose: 9.2 mg/kg/injection, schedule: Q01DX011 (ip), vehicle: carboxymethylcellulose (CMC)
# [10] = dose: 6.0 mg/kg/injection, schedule: Q01DX011 (ip), vehicle: carboxymethylcellulose (CMC)
smiles,measurement,setting,value
CN(Cc1ccccc1)c1ncnc2[nH]ncc12,T/C,[1],42 % of control
same,T/C,"dose: 25.0 mg/kg/injection, schedule: Q01DX011 (ip), vehicle: methylcellulose (MC)",62 % of control
same,T/C,"dose: 50.0 mg/kg/injection, schedule: Q01DX011 (ip), vehicle: methylcellulose (MC)",10 % of control
same,T/C,"dose: 100.0 mg/kg/injection, schedule: Q01DX011 (ip), vehicle: methylcellulose (MC)",2 % of control
Cc1ccccc1Nc1cc(=S)nc(N)[nH]1,T/C,[2],122 % of control
same,T/C,[3],91 % of control
same,T/C,[4],92 % of control
same,T/C,[5],84 % of control
On1cnc(=S)c2[nH]cnc21,T/C,[6],5 % of control
C[C@]12CC[C@H](O)C[C@H]1CC[C@@H]1[C@@H]2CC[C@]2(C)[C@@H](C3=CC(=O)OC3)CC[C@]12O,T/C,[7],72 % of control
same,T/C,"dose: 10.0 mg/kg/injection, schedule: Q01DX011 (ip), vehicle: carboxymethylcellulose (CMC)",67 % of control
same,T/C,"dose: 25.0 mg/kg/injection, schedule: Q01DX011 (ip), vehicle: carboxymethylcellulose (CMC)",49 % of control
CC(=O)OCC1OC(n2ncc(=O)[nH]c2=O)C(OC(C)=O)C1OC(C)=O (centres undefined),T/C,"dose: 187.5 mg/kg/injection, schedule: Q01DX011 (ip), vehicle: other",115 % of control
same,T/C,"dose: 375.0 mg/kg/injection, schedule: Q01DX011 (ip), vehicle: other",121 % of control
same,T/C,"dose: 1500.0 mg/kg/injection, schedule: Q01DX011 (ip), vehicle: other",43 % of control
C[C@@H]1CC2=CC(=O)C=C[C@]2(C)[C@H]2CC[C@@]3(C)[C@@H](CC[C@]3(C)O)[C@H]12,T/C,"dose: 400.0 mg/kg/injection, schedule: Q01DX011 (sc), vehicle: steriod suspending solution",16 % of control
same,T/C,"dose: 800.0 mg/kg/injection, schedule: Q01DX011 (sc), vehicle: steriod suspending solution",33 % of control
CCCCNCC(C)C(=O)OC (centres undefined),T/C,[2],92 % of control
same,T/C,[3],93 % of control
same,T/C,[4],87 % of control
same,T/C,[8],104 % of control
same,T/C,[5],104 % of control
CC1(C)N=C(N)N=C(N)N1c1cccc(Cl)c1,T/C,"dose: 1.15 mg/kg/injection, schedule: Q01DX011 (ip), vehicle: carboxymethylcellulose (CMC)",89 % of control
same,T/C,"dose: 2.3 mg/kg/injection, schedule: Q01DX011 (ip), vehicle: carboxymethylcellulose (CMC)",72 % of control
same,T/C,"dose: 4.6 mg/kg/injection, schedule: Q01DX011 (ip), vehicle: carboxymethylcellulose (CMC)",121 % of control
same,T/C,[9],88 % of control
NC(=O)c1ccccc1Nc1ccc([N+](=O)[O-])cc1[N+](=O)[O-],T/C,"dose: 34.0 mg/kg/injection, schedule: Q01DX011 (ip), vehicle: carboxymethylcellulose (CMC)",102 % of control
same,T/C,"dose: 100.0 mg/kg/injection, schedule: Q01DX011 (ip), vehicle: carboxymethylcellulose (CMC)",115 % of control
[Br][Hg][CH2]C1COC([CH2][Hg][Br])CO1 (centres undefined),T/C,[10],101 % of control
same,T/C,"dose: 12.0 mg/kg/injection, schedule: Q01DX011 (ip), vehicle: carboxymethylcellulose (CMC)",60 % of control
same,T/C,"dose: 50.0 mg/kg/injection, schedule: Q01DX011 (ip), vehicle: carboxymethylcellulose (CMC)",27 % of control
Cc1ccc(S(=O)(=O)OCC2OC(n3cnc4c(=O)[nH]c(N)nc43)C(O)C2O)cc1 (centres undefined),T/C,[7],108 % of control
same,T/C,"dose: 30.0 mg/kg/injection, schedule: Q01DX011 (ip), vehicle: carboxymethylcellulose (CMC)",97 % of control
same,T/C,"dose: 60.0 mg/kg/injection, schedule: Q01DX011 (ip), vehicle: carboxymethylcellulose (CMC)",100 % of control
same,T/C,"dose: 120.0 mg/kg/injection, schedule: Q01DX011 (ip), vehicle: carboxymethylcellulose (CMC)",98 % of control
same,T/C,"dose: 240.0 mg/kg/injection, schedule: Q01DX011 (ip), vehicle: carboxymethylcellulose (CMC)",62 % of control
CCCCSc1ncnc2c1ncn2C1CCCCO1 (centres undefined),T/C,[9],78 % of control
same,T/C,"dose: 14.0 mg/kg/injection, schedule: Q01DX011 (ip), vehicle: carboxymethylcellulose (CMC)",58 % of control
same,T/C,"dose: 21.0 mg/kg/injection, schedule: Q01DX011 (ip), vehicle: carboxymethylcellulose (CMC)",35 % of control
same,T/C,"dose: 31.0 mg/kg/injection, schedule: Q01DX011 (ip), vehicle: carboxymethylcellulose (CMC)",17 % of control
same,T/C,"dose: 47.0 mg/kg/injection, schedule: Q01DX011 (ip), vehicle: carboxymethylcellulose (CMC)",21 % of control
same,T/C,"dose: 63.0 mg/kg/injection, schedule: Q01DX011 (ip), vehicle: carboxymethylcellulose (CMC)",11 % of control
same,T/C,"dose: 94.0 mg/kg/injection, schedule: Q01DX011 (ip), vehicle: carboxymethylcellulose (CMC)",8 % of control
same,T/C,[6],9 % of control
same,T/C,"dose: 175.0 mg/kg/injection, schedule: Q01DX011 (ip), vehicle: carboxymethylcellulose (CMC)",12 % of control
same,T/C,"dose: 188.0 mg/kg/injection, schedule: Q01DX011 (ip), vehicle: carboxymethylcellulose (CMC)",2 % of control
same,T/C,"dose: 262.5 mg/kg/injection, schedule: Q01DX011 (ip), vehicle: carboxymethylcellulose (CMC)",14 % of control
CCN(CC)CCC(=O)N1CCN(C(=O)CCN(CC)CC)CC1,T/C,"dose: 3.8 mg/kg/injection, schedule: Q01DX011 (ip), vehicle: methylcellulose (MC)",110 % of control
same,T/C,"dose: 7.5 mg/kg/injection, schedule: Q01DX011 (ip), vehicle: methylcellulose (MC)",113 % of control
same,T/C,[2],71 % of control
same,T/C,"dose: 30.0 mg/kg/injection, schedule: Q01DX011 (ip), vehicle: methylcellulose (MC)",79 % of control
same,T/C,"dose: 30.0 mg/kg/injection, schedule: Q01DX011 (ip), vehicle: saline",119 % of control
same,T/C,"dose: 60.0 mg/kg/injection, schedule: Q01DX011 (ip), vehicle: saline",105 % of control
O=C(Nc1ccc(C2=NCCN2)cc1)c1ccc(C(=O)Nc2ccc(C3=NCCN3)cc2)cc1,T/C,"dose: 3.3 mg/kg/injection, schedule: Q01DX011 (ip), vehicle: methylcellulose (MC)",122 % of control
same,T/C,"dose: 6.5 mg/kg/injection, schedule: Q01DX011 (ip), vehicle: methylcellulose (MC)",113 % of control
[I][Hg][CH2]C1OC2CCC1C[CH]2[Hg][I] (centres undefined),T/C,[10],89 % of control
Cc1ccc(N=Nc2c(S(=O)(=O)O)cc3cc(NC(=O)Nc4ccc5c(O)c(N=Nc6ccc7cc(S(=O)(=O)O)ccc7c6)c(S(=O)(=O)O)cc5c4)ccc3c2O)c(C)c1,T/C,"dose: 45.0 mg/kg/injection, schedule: Q01DX011 (ip), vehicle: carboxymethylcellulose (CMC)",81 % of control
CC(=O)[C@H]1CC[C@H]2[C@@H]3CCC4=CC(=O)[C@H](C)C[C@]4(C)[C@@]3(F)C(=O)C[C@]12C,T/C,"dose: 1.5 mg/kg/injection, schedule: Q01DX011 (sc), vehicle: steriod suspending solution",120 % of control
same,T/C,"dose: 3.12 mg/kg/injection, schedule: Q01DX011 (sc), vehicle: steriod suspending solution",77 % of control
same,T/C,"dose: 6.0 mg/kg/injection, schedule: Q01DX011 (sc), vehicle: steriod suspending solution",69 % of control
same,T/C,"dose: 6.25 mg/kg/injection, schedule: Q01DX011 (sc), vehicle: steriod suspending solution",79 % of control
same,T/C,"dose: 12.0 mg/kg/injection, schedule: Q01DX011 (sc), vehicle: steriod suspending solution",36 % of control and 56 % of control
same,T/C,"dose: 12.5 mg/kg/injection, schedule: Q01DX011 (sc), vehicle: steriod suspending solution",79 % of control
same,T/C,"dose: 25.0 mg/kg/injection, schedule: Q01DX011 (sc), vehicle: steriod suspending solution",36 % of control and 47 % of control and 58 % of control
same,T/C,"dose: 50.0 mg/kg/injection, schedule: Q01DX011 (sc), vehicle: steriod suspending solution",33 % of control and 39 % of control
same,T/C,"dose: 51.0 mg/kg/injection, schedule: Q01DX011 (sc), vehicle: steriod suspending solution",21 % of control
same,T/C,"dose: 75.0 mg/kg/injection, schedule: Q01DX011 (sc), vehicle: steriod suspending solution",21 % of control
same,T/C,"dose: 100.0 mg/kg/injection, schedule: Q01DX011 (sc), vehicle: steriod suspending solution",9 % of control and 16 % of control and 22 % of control
same,T/C,"dose: 200.0 mg/kg/injection, schedule: Q01DX011 (sc), vehicle: steriod suspending solution",6 % of control and 14 % of control
Cc1cnc(SCc2ccc(Cl)cc2Cl)nc1SCc1ccc(Cl)cc1Cl,T/C,[3],114 % of control
same,T/C,[8],100 % of control
same,T/C,[5],117 % of control
COC1=NC2=NCCN2C(OC)=N1,T/C,"dose: 25.0 mg/kg/injection, schedule: Q01DX011 (ip), vehicle: saline",94 % of control
same,T/C,"dose: 75.0 mg/kg/injection, schedule: Q01DX011 (ip), vehicle: saline",69 % of control
same,T/C,"dose: 225.0 mg/kg/injection, schedule: Q01DX011 (ip), vehicle: saline",54 % of control
CCCNc1ncnc2c1cnn2C1CCCO1 (centres undefined),T/C,"dose: 1.5 mg/kg/injection, schedule: Q01DX011 (ip), vehicle: methylcellulose (MC)",75 % of control
same,T/C,"dose: 3.1 mg/kg/injection, schedule: Q01DX011 (ip), vehicle: methylcellulose (MC)",66 % of control
same,T/C,"dose: 6.2 mg/kg/injection, schedule: Q01DX011 (ip), vehicle: methylcellulose (MC)",27 % of control
same,T/C,[1],3 % of control and 4 % of control

# Source: PubChem BioAssay AID180 (DTP/NCI, 2004)
